The source of these data is patent US12479856B2, “Pharmaceutical compounds for the treatment of complement mediated disorders” (Achillion Pharmaceuticals, Inc., priority 2019, dated 2025).

Molecules are shown by their SMILES. pIC50: −log10 of the molar value.

For the first test, the target named is T1, Human complement C1s enzyme (Homo sapiens, UniProt P09871).
T1 construct: purified from human serum, Complement Technology, Inc; purchased Complement Technology, Inc; host or cells: human serum (plasma-derived natural protein)
T1 sequence (P09871 438-688 limits assumed): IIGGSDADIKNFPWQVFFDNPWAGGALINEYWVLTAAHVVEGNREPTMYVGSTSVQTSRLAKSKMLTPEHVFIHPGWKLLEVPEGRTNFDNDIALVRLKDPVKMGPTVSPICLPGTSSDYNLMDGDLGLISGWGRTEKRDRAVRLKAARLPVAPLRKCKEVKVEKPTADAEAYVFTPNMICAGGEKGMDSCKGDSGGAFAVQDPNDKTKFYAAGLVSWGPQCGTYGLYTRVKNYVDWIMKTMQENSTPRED
T1 sequence (P09871 16-437 partner limits assumed): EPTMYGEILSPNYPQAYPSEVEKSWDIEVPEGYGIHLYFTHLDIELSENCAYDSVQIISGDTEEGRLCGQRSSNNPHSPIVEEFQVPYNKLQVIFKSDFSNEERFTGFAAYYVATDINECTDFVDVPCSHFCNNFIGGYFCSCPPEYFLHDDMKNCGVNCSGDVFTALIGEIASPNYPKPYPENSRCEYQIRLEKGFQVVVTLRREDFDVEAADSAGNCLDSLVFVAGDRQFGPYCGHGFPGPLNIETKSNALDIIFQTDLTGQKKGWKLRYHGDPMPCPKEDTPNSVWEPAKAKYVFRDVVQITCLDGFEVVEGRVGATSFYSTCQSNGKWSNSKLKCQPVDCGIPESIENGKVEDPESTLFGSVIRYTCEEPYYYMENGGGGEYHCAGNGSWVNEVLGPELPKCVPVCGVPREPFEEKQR
Nature of the test: Human C1s Enzyme Assay. The note with it: Table 1; C1s purified from human serum, 1.16 nM; substrate Z-L-Lys-SBzl; read-out: C1s Protease Activity. It counts as biochemical. The method, then: Example 4. Human C1s Enzyme Assay
Human complement C1s enzyme (purified from human serum, Complement Technology, Inc.) at 1.16 nM final concentration is incubated with test compound at various concentrations for 5 min at room temperature in 50 mM Tris, 1 M NaCl, pH 7.5. A synthetic substrate Z-L-Lys-SBzl and DTNB (Ellman's reagent) are added to final concentrations of 100 μM each. Absorbance at 405 nm (A405) is recorded at 30 second intervals for 30 min using a microplate spectrophotometer. IC50 values are calculated by nonlinear regression of complement C1s reaction rates as a function of test compound concentration.
Consider `Nc1cc(CCNC(=O)[C@@H]2CC3(CN2C(=O)CNC(=O)c2ccc(Oc4ccccc4)cc2)OCCO3)ccn1` [Compound 24, (8S)—N-[2-(2-Aminopyridin-4-yl)ethyl]-7-{2-[(4-phenoxyphenyl)formamido]acetyl}-1,4-dioxa-7-azaspiro[4.4]nonane-8-carboxamide], for which the pIC50 was below 6.00.

Consider `NCCCCNC(=O)[C@@H]1CC2(CN1C(=O)CNC(=O)c1ccc(Oc3ccccc3)cc1)OCCO2` [Compound 25, (8S)—N-(4-Aminobutyl)-7-{2-[(4-phenoxyphenyl)formamido]acetyl}-1,4-dioxa-7-azaspiro[4.4]nonane-8-carboxamide], for which the pIC50 is below 6.00.

On to `NCCCCCNC(=O)[C@@H]1CC2(CN1C(=O)CNC(=O)c1ccc(Oc3ccccc3)cc1)OCCO2` [Compound 26, (8S)—N-(5-Aminopentyl)-7-{2-[(4-phenoxyphenyl)formamido]acetyl}-1,4-dioxa-7-azaspiro[4.4]nonane-8-carboxamide], for which the pIC50 was below 6.00.

With `NCCCCCCNC(=O)[C@@H]1CC2(CN1C(=O)CNC(=O)c1ccc(Oc3ccccc3)cc1)OCCO2` [Compound 27, (8S)—N-(6-Aminohexyl)-7-{2-[(4-phenoxyphenyl)formamido]acetyl}-1,4-dioxa-7-azaspiro[4.4]nonane-8-carboxamide], the pIC50 was below 6.00.

In the case of `N=C(N)CCCNC(=O)[C@@H]1CCCN1C(=O)CNC(=O)c1ccc(Oc2ccccc2)cc1` [Compound 28, (S)-N-(4-amino-4-iminobutyl)-1-((4-phenoxybenzoyl)glycyl)pyrrolidine-2-carboxamide], the pIC50 is below 6.00.

For the compound `N=C(N)CCCCNC(=O)[C@@H]1CCCN1C(=O)CNC(=O)c1ccc(Oc2ccccc2)cc1` [Compound 29, (S)-N-(5-amino-5-iminopentyl)-1-((4-phenoxybenzoyl)glycyl)pyrrolidine-2-carboxamide], the pIC50 is below 6.00.

`C[C@H]1C[C@@H](C(=O)NCc2cc(C(=N)N)cs2)N(C(=O)CNC(=O)c2ccc(Oc3ccccc3)cc2)C1` [Compound 30, (2S,4S)—N-[(4-carbamimidoylthiophen-2-yl)methyl]-4-methyl-1-{2-[(4-phenoxyphenyl)formamido]acetyl}pyrrolidine-2-carboxamide]: the pIC50 is above 7.00.

As for `N=C(N)c1csc(CNC(=O)[C@@H]2C[C@@H](O)CN2C(=O)CNC(=O)c2ccc(Oc3ccccc3)cc2)c1` [Compound 31, (2S,4R)—N-[(4-carbamimidoylthiophen-2-yl)methyl]-4-hydroxy-1-{2-[(4-phenoxyphenyl)formamido]acetyl}pyrrolidine-2-carboxamide], the pIC50 is above 7.00.

On to `CO[C@@H]1C[C@@H](C(=O)NCc2cc(C(=N)N)cs2)N(C(=O)CNC(=O)c2ccc(Oc3ccccc3)cc2)C1` [Compound 32, (2S,4R)—N-[(4-carbamimidoylthiophen-2-yl)methyl]-4-methoxy-1-{2-[(4-phenoxyphenyl)formamido]acetyl}pyrrolidine-2-carboxamide], for which the pIC50 is above 7.00.

`CO[C@H]1C[C@@H](C(=O)NCc2cc(C(=N)N)cs2)N(C(=O)CNC(=O)c2ccc(Oc3ccccc3)cc2)C1` [Compound 33, (2S,4S)—N-[(4-carbamimidoylthiophen-2-yl)methyl]-4-methoxy-1-{2-[(4-phenoxyphenyl)formamido]acetyl}pyrrolidine-2-carboxamide]: the pIC50 was above 7.00.

For `CO[C@H]1C[C@H](C(=O)CNC(=O)c2ccc(Oc3ccccc3)cc2)[C@H](C(=O)NCc2cc(C(=N)N)cs2)C1` [Compound 34, N-(2-((1S,2R,4S)-2-(((4-carbamimidoylthiophen-2-yl)methyl)carbamoyl)-4-methoxycyclopentyl)-2-oxoethyl)-4-phenoxybenzamide], the pIC50 is below 6.00.

Take `CO[C@H]1C[C@@H](C(=O)CNC(=O)c2ccc(Oc3ccccc3)cc2)[C@H](C(=O)NCc2cc(C(=N)N)cs2)C1` [Compound 35, N-(2-((1R,2R,4S)-2-(((4-carbamimidoylthiophen-2-yl)methyl)carbamoyl)-4-methoxycyclopentyl)-2-oxoethyl)-4-phenoxybenzamide]: the pIC50 was 6.00 to 7.00.

Regarding `N=C(N)c1csc(CNC(=O)[C@@H]2CCCN2C(=O)NNC(=O)c2ccc(Oc3ccccc3)cc2)c1` [Compound 36, (S)-N-((4-carbamimidoylthiophen-2-yl)methyl)-1-(2-(4-phenoxybenzoyl)hydrazine-1-carbonyl)pyrrolidine-2-carboxamide], the pIC50 is 6.00 to 7.00.

The same test, now with this note: Table 2; C1s purified from human serum, 1.16 nM; substrate Z-L-Lys-SBzl; read-out: C1s Protease Activity.
As to `N=C(N)c1csc(CNC(=O)[C@@H]2CCCN2CCCCc2ccc(Oc3ccccc3)cc2)c1` [Compound 37, (S)-N-((4-carbamimidoylthiophen-2-yl)methyl)-1-(4-(4-phenoxyphenyl)butyl)pyrrolidine-2-carboxamide], the pIC50 is below 6.00.

`N=C(N)c1csc(CNC(=O)[C@@H]2CCCN2C(=O)COCc2ccc(Oc3ccccc3)cc2)c1` [Compound 38, (S)-N-((4-carbamimidoylthiophen-2-yl)methyl)-1-(2-((4-phenoxybenzyl)oxy)acetyl)pyrrolidine-2-carboxamide]: the pIC50 was 6.00 to 7.00.

Regarding `Cc1cc(C(=O)NCC(=O)N2CCC[C@H]2C(=O)NCc2cc(C(=N)N)cs2)ccc1Oc1ccccc1` [Compound 39, (S)-N-((4-carbamimidoylthiophen-2-yl)methyl)-1-((3-methyl-4-phenoxybenzoyl)glycyl)pyrrolidine-2-carboxamide], the pIC50 was above 7.00.

For `C=C(CCC(=O)N1CCC[C@H]1C(=O)NCc1cc(C(=N)N)cs1)c1ccc(Oc2ccccc2)cc1` [Compound 40, (S)-N-((4-carbamimidoylthiophen-2-yl)methyl)-1-(4-(4-phenoxyphenyl)pent-4-enoyl)pyrrolidine-2-carboxamide], the pIC50 is 6.00 to 7.00.

Take `CCCc1cc(C(=O)NCC(=O)N2CCC[C@H]2C(=O)NCc2cc(C(=N)N)cs2)ccc1Oc1ccccc1` [Compound 41, (S)-N-((4-carbamimidoylthiophen-2-yl)methyl)-1-((4-phenoxy-3-propylbenzoyl)glycyl)pyrrolidine-2-carboxamide]: the pIC50 is above 7.00.

For the compound `CCCCCc1cc(C(=O)NCC(=O)N2CCC[C@H]2C(=O)NCc2cc(C(=N)N)cs2)ccc1Oc1ccccc1` [Compound 42, (S)-N-((4-carbamimidoylthiophen-2-yl)methyl)-1-((3-pentyl-4-phenoxybenzoyl)glycyl)pyrrolidine-2-carboxamide], the pIC50 was above 7.00.

For the compound `CCCCc1cc(C(=O)NCC(=O)N2CCC[C@H]2C(=O)NCc2cc(C(=N)N)cs2)ccc1Oc1ccccc1` [Compound 43, (S)-1-((3-butyl-4-phenoxybenzoyl)glycyl)-N-((4-carbamimidoylthiophen-2-yl)methyl)pyrrolidine-2-carboxamide], the pIC50 is above 7.00.

Consider `N=C(N)c1csc(CNC(=O)[C@@H]2CCCN2C(=O)CCC2(c3ccc(Oc4ccccc4)cc3)CC2)c1` [Compound 44, (S)-N-((4-carbamimidoylthiophen-2-yl)methyl)-1-(3-(1-(4-phenoxyphenyl)cyclopropyl)propanoyl)pyrrolidine-2-carboxamide], for which the pIC50 was below 6.00.

On to `Cc1cc(C(=O)NCC(=O)N2CC3(CCCC3)C[C@H]2C(=O)NCc2cc(C(=N)N)cs2)ccc1Oc1ccccc1` [Compound 46, (S)-N-((4-carbamimidoylthiophen-2-yl)methyl)-2-((3-methyl-4-phenoxybenzoyl)glycyl)-2-azaspiro[4.4]nonane-3-carboxamide], for which the pIC50 is above 7.00.
